The source made the active and inactive calls. The rule behind the calls is not given here.
How the values were obtained:
[1] = target: Poly [ADP-ribose] polymerase 1 (Homo sapiens, UniProt P09874); details: dose 10.0 nM, time 90.0 min
[2] = Tmax in Sprague-Dawley rat at 1 mg/kg, iv by LC-MS/MS analysis; assay type: ADME, organism-based; details: in vivo
MDA-MB-231 [3] = test: Antitumor activity against human MDA-MB-231 cells xenografted in BALB/c mouse assessed as tumor growth inhibition at 20 mg/kg, ip administered for 21 days; assay type: functional; details: MDA-MB-231, 504 h, time 21 day, read-out: TGI
MCF-10A = test: Effect on DNA polymerase theta expression in human MCF-10A cells by immunoblotting analysis; assay type: functional, cell-based
[4] = AUC (0 to infinity) in Sprague-Dawley rat at 1 mg/kg, iv by LC-MS/MS analysis; assay type: ADME, organism-based; details: in vivo
[5] = target: T1, Poly [ADP-ribose] polymerase tankyrase-1 (Homo sapiens, UniProt O95271); test: Inhibition of PARP5a (unknown origin)
T1 sequence (O95271 whole entry): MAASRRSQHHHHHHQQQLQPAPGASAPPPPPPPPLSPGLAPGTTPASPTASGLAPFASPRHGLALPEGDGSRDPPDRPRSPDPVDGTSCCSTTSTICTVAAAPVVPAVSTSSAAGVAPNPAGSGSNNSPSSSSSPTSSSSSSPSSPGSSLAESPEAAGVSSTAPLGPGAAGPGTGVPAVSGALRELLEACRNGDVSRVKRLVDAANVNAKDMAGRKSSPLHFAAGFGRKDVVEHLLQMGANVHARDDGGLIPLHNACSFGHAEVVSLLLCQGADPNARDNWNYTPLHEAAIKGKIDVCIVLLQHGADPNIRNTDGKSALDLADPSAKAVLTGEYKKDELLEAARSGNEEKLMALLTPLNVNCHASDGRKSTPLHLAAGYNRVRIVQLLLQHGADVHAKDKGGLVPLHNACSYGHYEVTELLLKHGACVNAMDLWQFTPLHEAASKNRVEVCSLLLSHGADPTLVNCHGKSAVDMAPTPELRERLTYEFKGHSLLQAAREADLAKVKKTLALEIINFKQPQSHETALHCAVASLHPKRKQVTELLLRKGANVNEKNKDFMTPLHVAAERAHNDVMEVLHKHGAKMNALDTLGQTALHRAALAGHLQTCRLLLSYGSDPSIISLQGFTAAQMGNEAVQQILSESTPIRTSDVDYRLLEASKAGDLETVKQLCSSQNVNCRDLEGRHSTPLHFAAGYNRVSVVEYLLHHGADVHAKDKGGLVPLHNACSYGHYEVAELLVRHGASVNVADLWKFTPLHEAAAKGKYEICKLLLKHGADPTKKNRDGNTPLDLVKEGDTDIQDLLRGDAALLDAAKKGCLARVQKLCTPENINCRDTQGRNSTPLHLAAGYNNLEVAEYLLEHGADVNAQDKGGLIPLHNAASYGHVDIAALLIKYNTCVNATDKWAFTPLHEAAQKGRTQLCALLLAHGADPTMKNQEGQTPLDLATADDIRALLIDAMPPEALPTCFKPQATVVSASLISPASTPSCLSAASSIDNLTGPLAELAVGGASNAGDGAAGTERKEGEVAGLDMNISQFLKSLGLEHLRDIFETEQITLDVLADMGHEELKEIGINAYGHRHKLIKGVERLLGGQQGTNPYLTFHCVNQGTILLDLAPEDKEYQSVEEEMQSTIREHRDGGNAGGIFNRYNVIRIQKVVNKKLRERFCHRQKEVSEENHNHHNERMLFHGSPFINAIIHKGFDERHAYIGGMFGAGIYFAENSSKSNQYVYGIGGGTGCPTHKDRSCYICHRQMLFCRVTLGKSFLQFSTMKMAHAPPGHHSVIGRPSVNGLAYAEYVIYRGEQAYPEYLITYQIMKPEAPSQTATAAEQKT

MDA-MB-231 [6] = test: Induction of apoptosis in human MDA-MB-231 cells at 2 uM incubated for 3 days by Annexin V-APC/7-AAD based flow cytometry analysis; assay type: functional; details: time 3 day
MDA-MB-436 = test: Antiproliferative activity against human MDA-MB-436 cells transfected with SiRNA assessed as inhibition of cell proliferation incubated for 5 days by MTT assay; assay type: functional, cell-based; details: time 5.0 day
[7] = target: T2, Protein mono-ADP-ribosyltransferase PARP8 (Homo sapiens, UniProt Q8N3A8); test: Inhibition of PARP8 (unknown origin)
T2 sequence (Q8N3A8 whole entry): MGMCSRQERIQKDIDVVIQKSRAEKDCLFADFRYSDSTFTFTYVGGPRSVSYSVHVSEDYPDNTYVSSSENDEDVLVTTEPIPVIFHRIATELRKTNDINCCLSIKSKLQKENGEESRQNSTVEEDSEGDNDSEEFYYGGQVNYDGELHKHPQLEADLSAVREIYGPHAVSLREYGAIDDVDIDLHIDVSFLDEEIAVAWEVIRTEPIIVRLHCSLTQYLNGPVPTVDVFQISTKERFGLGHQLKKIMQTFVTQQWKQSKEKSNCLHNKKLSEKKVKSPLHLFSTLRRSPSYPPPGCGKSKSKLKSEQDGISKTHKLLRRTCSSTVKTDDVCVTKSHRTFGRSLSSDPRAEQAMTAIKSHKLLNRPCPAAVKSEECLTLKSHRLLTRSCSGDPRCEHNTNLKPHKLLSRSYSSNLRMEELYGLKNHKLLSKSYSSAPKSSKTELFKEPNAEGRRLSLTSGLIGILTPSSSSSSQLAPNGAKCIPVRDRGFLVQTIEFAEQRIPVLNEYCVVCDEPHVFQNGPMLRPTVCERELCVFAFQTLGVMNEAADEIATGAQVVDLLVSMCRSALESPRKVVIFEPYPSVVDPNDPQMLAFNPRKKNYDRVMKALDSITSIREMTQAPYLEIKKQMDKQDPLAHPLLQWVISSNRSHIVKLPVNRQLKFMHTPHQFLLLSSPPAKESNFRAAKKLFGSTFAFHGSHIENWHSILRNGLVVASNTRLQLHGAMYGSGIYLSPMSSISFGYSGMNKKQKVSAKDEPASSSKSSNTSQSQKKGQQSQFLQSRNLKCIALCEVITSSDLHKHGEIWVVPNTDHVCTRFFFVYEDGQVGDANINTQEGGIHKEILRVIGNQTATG

HCT-116 = test: Antiproliferative activity against BRCA2-deficient human HCT-116 cells assessed as inhibition of cell proliferation incubated for 5 days by MTT assay; assay type: functional, cell-based; details: HCT-116, 120 h
[8] = Metabolic stability in mouse liver microsome assessed as half life; assay type: ADME; details: liver microsomes
MDA-MB-231 [9] = test: Induction of cell cycle arrest in human MDA-MB-231 cells assessed as accumulation of cells at G2/M phase at 2 uM incubated for 3 days by PI staining based flow cytometric analysis; assay type: functional; details: time 3.0 day
[10] = Metabolic stability in human liver microsome assessed as half life; assay type: ADME; details: liver microsomes
[11] = Antiproliferative activity against human MCF-10A cells assessed as inhibition of cell proliferation incubated for 5 days by MTT assay; assay type: toxicity, cell-based; details: human, MCF-10A cells
DNA polymerase theta = DNA polymerase theta (Homo sapiens, UniProt O75417); test: Inhibition of DNA polymerase theta mediated TMEJ repair activity in HEK293 cells incubated for 24 hrs by Nano-glo luciferase assay; assay type: cell-based
Sequence of DNA polymerase theta (O75417 whole entry): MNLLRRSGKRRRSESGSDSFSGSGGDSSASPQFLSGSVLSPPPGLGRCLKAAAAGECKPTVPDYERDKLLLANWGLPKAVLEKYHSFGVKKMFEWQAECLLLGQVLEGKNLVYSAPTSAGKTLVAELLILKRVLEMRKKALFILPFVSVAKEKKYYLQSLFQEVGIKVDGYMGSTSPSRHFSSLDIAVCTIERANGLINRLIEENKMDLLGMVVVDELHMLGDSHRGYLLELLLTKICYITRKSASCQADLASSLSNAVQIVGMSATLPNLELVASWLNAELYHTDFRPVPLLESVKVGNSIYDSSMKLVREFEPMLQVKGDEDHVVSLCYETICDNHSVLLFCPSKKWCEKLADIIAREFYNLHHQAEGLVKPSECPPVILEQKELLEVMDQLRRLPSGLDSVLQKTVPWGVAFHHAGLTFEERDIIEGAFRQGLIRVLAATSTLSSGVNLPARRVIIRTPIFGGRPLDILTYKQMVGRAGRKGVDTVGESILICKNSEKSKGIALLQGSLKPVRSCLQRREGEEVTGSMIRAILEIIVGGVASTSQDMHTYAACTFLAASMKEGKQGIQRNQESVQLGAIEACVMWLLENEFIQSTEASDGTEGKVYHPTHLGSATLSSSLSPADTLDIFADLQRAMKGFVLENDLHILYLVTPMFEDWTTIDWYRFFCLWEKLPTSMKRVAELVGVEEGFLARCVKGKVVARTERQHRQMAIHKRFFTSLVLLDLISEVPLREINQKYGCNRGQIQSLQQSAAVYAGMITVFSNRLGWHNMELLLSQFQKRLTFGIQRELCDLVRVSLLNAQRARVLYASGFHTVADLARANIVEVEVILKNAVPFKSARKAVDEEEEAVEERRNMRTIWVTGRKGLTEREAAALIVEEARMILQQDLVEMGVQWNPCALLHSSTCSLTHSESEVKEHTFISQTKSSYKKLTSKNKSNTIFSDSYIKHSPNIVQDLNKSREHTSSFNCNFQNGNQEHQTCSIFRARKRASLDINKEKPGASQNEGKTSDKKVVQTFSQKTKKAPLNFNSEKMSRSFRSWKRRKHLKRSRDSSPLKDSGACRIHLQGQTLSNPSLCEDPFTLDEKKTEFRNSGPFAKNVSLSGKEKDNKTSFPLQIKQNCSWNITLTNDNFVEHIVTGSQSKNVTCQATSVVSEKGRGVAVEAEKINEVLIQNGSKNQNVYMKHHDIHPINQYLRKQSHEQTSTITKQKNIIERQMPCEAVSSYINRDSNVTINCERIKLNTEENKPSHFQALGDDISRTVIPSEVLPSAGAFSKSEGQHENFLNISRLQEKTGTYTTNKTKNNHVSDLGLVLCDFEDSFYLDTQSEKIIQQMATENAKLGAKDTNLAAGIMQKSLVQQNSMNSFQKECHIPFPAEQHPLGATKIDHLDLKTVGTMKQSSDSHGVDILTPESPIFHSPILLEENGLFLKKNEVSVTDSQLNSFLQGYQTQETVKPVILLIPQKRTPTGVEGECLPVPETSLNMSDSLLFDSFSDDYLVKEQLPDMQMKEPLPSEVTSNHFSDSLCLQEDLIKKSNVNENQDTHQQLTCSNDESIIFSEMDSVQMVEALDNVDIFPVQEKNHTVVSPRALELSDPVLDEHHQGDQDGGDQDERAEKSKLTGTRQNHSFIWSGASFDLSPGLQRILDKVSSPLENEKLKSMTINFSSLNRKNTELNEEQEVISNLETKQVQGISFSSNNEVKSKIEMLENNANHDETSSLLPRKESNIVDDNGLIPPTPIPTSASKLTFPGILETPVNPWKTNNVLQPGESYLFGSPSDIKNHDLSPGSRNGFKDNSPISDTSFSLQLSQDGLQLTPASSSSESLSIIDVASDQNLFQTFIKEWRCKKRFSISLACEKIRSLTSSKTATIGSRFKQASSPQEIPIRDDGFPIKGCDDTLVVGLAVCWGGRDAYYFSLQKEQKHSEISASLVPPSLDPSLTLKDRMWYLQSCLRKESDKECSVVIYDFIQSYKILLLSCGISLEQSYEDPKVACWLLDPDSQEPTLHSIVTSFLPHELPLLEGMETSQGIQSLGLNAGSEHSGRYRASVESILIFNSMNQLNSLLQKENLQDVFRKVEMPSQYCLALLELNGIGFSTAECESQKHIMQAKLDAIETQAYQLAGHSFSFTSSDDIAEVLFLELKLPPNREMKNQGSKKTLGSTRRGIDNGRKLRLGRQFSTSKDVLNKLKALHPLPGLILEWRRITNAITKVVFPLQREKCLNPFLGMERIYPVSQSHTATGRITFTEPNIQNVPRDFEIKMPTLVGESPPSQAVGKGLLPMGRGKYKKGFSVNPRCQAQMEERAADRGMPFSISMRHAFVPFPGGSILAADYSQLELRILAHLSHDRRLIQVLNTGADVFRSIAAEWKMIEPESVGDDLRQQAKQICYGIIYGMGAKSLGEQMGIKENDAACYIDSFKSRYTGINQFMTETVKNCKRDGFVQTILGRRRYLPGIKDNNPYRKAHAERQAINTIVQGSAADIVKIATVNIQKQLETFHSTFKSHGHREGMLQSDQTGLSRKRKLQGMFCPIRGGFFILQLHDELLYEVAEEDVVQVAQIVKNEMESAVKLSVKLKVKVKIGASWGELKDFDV

Sequence of Poly [ADP-ribose] polymerase 1 (P09874 whole entry): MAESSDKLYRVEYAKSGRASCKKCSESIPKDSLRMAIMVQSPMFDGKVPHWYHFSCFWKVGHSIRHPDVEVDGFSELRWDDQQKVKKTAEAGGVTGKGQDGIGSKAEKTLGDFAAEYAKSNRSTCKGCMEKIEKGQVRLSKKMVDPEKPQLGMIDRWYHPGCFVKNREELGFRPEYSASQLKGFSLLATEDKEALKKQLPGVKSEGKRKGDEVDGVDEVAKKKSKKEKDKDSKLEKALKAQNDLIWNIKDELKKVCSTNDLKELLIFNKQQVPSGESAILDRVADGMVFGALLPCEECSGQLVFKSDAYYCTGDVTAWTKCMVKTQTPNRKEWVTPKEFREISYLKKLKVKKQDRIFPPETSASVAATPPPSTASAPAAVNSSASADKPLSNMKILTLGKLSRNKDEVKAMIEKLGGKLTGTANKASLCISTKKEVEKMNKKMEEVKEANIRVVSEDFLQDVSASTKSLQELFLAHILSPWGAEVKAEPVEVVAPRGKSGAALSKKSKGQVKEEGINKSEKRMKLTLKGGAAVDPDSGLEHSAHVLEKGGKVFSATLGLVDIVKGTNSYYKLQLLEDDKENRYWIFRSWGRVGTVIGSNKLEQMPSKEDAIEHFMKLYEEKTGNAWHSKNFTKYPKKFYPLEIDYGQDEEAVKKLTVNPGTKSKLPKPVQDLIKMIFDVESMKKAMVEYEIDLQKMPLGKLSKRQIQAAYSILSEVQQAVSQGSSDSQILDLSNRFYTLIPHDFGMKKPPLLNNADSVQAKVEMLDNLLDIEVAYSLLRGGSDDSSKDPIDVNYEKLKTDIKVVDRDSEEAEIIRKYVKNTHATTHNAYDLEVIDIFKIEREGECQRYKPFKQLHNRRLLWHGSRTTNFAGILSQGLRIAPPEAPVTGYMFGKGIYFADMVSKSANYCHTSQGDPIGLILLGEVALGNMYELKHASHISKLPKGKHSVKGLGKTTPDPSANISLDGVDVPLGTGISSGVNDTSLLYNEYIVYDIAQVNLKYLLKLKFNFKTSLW

COc1ccc(Cl)cc1-c1cc(C)ncc1C(=O)Nc1nnc(OCC2CCN(C(=O)c3cc(Cc4n[nH]c(=O)c5ccccc45)ccc3F)CC2)s1
inhibition [1]: 71.1% | Tmax [2]: 4.8 min | inhibition in vivo at 20 mg/kg (MDA-MB-231 [3]): 40.6% | Activity (MCF-10A): Active | AUC(0-inf) [4]: 0.738 µg·h/mL | IC50 [5]: 0.206 µM | Activity (MDA-MB-231 [6]): 26.7% | Activity (MDA-MB-436): Active | IC50 [7]: 2.93 µM | IC50 (HCT-116): 8.9 µM | half-life [8]: 5.1 min | Activity (MDA-MB-231 [9]): Active | half-life [10]: 2.35 min | IC50 at 5 days [11]: > 80 µM | IC50 (DNA polymerase theta): 0.088 µM

Reference: ChEMBL document CHEMBL5518204, “Discovery and Proof of Concept of Potent Dual Polθ/PARP Inhibitors for Efficient Treatment of Homologous Recombination-Deficient Tumors” (J Med Chem, 2024)
